US12559474B2, “Triazine derivatives having virus replication inhibitory activity and pharmaceutical composition comprising the same” (priority 2021, dated 2026)
Several values for one entry are separate records, joined by “and”; a condition that tells them apart may be missing. Equal values may be shown once. Read-outs that look alike come from different tables or passages of the source.

Target: SARS-CoV-2 3CL protease (Severe acute respiratory syndrome coronavirus 2, UniProt P0DTD1)
Assay: biochemical

| Structure (SMILES) | IC50 (IC50) | IC50 (50% SARS-CoV-2 3CL protease inhibitory concentration, given as class symbols, read-out: IC50) |
| --- | --- | --- |
| Cn1cnc(Cn2c(=O)nc(Nc3cc4cn(C5CCNCC5)nc4cc3Cl)n(Cc3cc(Cl)c(F)cc3F)c2=O)n1 [II-0532] | < 100 nM |  |
| Cn1cc2cc(Nc3nc(=O)n(Cc4ccc[nH]c4=O)c(=O)n3Cc3cc(F)cc(C#N)c3)c(Cl)cc2n1 [Compound I-0268] | < 100 nM |  |
| CN(C(=O)Cn1cc2cc(Nc3nc(=O)n(Cc4ncn(C)n4)c(=O)n3Cc3cc(F)c(F)c(Cl)c3)c(Cl)cc2n1)C1CC1 [II-0155] | < 100 nM |  |
| Cc1cncc(-n2c(=O)nc(Nc3cc4sc(NCC5CC5)nc4cc3Cl)n(Cc3ccc(F)c(C#N)c3)c2=O)c1 [II-0081] | < 100 nM |  |
| O=c1[nH]cccc1Cn1c(=O)nc(N[C@@H]2CCN(c3ccccn3)C2)n(Cc2cc(F)c(F)c(F)c2)c1=O [II-0374] | 3500 nM |  |
| O=c1[nH]cccc1Cn1c(=O)nc(Nc2cc3cn(CC4(CO)COC4)nc3cc2Cl)n(Cc2cc(F)c(F)c(F)c2)c1=O [Compound I-0469] | < 100 nM |  |
| NC(=O)c1cnc2[nH]c(=O)c(Cn3c(=O)nc(Nc4ccc5c(c4)CCO5)n(Cc4cc(F)c(F)c(F)c4)c3=O)cc2c1 [II-0317] | < 100 nM |  |
| Cc1nc2cc(Cl)c(Nc3nc(=O)n(Cc4ccc[nH]c4=O)c(=O)n3Cc3ccc(F)c(C#N)c3)cc2n1C [Compound I-0266] | < 100 nM |  |
| Cn1cnc(Cn2c(=O)nc(NC34CC(Nc5ncccn5)(C3)C4)n(Cc3cc(F)c(F)c(F)c3)c2=O)n1 [II-0474] | < 100 nM |  |
| O=c1[nH]cccc1Cn1c(=O)nc(NC23CC(Nc4ncccn4)(C2)C3)n(Cc2cc(F)c(F)c(F)c2)c1=O [II-0443] | < 100 nM |  |
| CNC(=O)c1ccc(Nc2nc(=O)n(Cc3ccc[nH]c3=O)c(=O)n2Cc2cc(F)c(F)c(F)c2)cc1 [Compound I-0149] | 3500 nM and 1000 to 10000 nM |  |
| COc1cc(N=S(C)(C)=O)ccc1Nc1nc(=O)n(-c2cncc(C)c2)c(=O)n1Cc1cc(Cl)ccc1C [II-0633] | < 100 nM |  |
| COCCN(C)C(=O)Cn1cc2cc(Nc3nc(=O)n(Cc4ncn(C)n4)c(=O)n3Cc3cc(F)c(F)c(Cl)c3)c(Cl)cc2n1 [II-0141] | < 100 nM |  |
| COc1ccc(Nc2nc(=O)n(Cc3cc(C)[nH]n3)c(=O)n2Cc2cc(F)c(F)c(F)c2)cc1 [Compound I-0340] | 840 nM and 100 to 1000 nM |  |
| Cn1cnc(Cn2c(=O)nc(Nc3cc4cn(CC(=O)NC5CC5)nc4cc3Cl)n(Cc3cc(F)c(F)c(Cl)c3)c2=O)n1 [II-0152] | < 100 nM |  |
| O=C1OCCN1c1ccc(Nc2nc(=O)n(Cc3ccc[nH]c3=O)c(=O)n2Cc2cc(F)c(F)c(F)c2)c(Cl)c1 [Compound I-0397] | 730 nM and 100 to 1000 nM |  |
| CC(=O)Nc1nc2ccc(Nc3nc(=O)n(Cc4ccc[nH]c4=O)c(=O)n3Cc3cc(F)c(F)c(F)c3)cc2s1 [Compound I-0458] | < 100 nM |  |
| CCc1nc2cc(Cl)c(Nc3nc(=O)n(Cc4ccc[nH]c4=O)c(=O)n3Cc3cc(F)c(F)c(F)c3)cc2n1C [Compound I-0399] | < 100 nM |  |
| Cc1nc2cc(Cl)c(Nc3nc(=O)n(Cc4ccc[nH]c4=O)c(=O)n3Cc3cc(F)c(F)c(F)c3)cn2n1 [Compound I-0442] | < 100 nM |  |
| Cn1cnc(Cn2c(=O)nc(Nc3cc4cn(C)nc4cc3Cl)n(CC3CCCC3)c2=O)n1 [II-0605] | 1000 to 10000 nM |  |
| CC(=O)Nc1ccc(C#N)cc1Cn1c(Nc2cc3cn(C)nc3cc2Cl)nc(=O)n(-c2cncc(C)c2)c1=O [II-0594] | 270 nM |  |
| O=c1[nH]cccc1Cn1c(=O)nc(NC(c2ccccc2)c2ccccc2O)n(Cc2cc(F)c(F)c(F)c2)c1=O (stereo not drawn) [II-0229] | 250 nM |  |

| Structure (SMILES) | IC50 (IC50) | IC50 (50% SARS-CoV-2 3CL protease inhibitory concentration, given as class symbols, read-out: IC50) |
| --- | --- | --- |
| CNC(=O)Cn1cc2cc(Nc3nc(=O)n(Cc4ncn(C)n4)c(=O)n3Cc3cc(F)c(F)c(Cl)c3)c(Cl)cc2n1 [II-0145] | < 100 nM |  |
| CC(=O)NCCn1cc2cc(Nc3nc(=O)n(Cc4ccc[nH]c4=O)c(=O)n3Cc3cc(F)c(F)c(F)c3)c(Cl)cc2n1 [Compound I-0449] | < 100 nM |  |
| COc1ccc(Nc2nc(=O)n(Cc3ccc[nH]c3=O)c(=O)n2Cc2cc(F)c(F)c(F)c2)c(O)c1 [Compound I-0056] | < 100 nM |  |
| Cc1nc2cc(Cl)c(Nc3nc(=O)n(Cc4ccc[nH]c4=O)c(=O)n3Cc3cc(F)c(F)c(F)c3)cc2n1CC(C)(C)O [Compound I-0445] | < 100 nM |  |
| CN(C)C(=O)c1ccc(Cn2c(=O)nc(Nc3ccc4c(c3)CCCO4)n(Cc3cc(F)c(F)c(F)c3)c2=O)c(=O)[nH]1 [II-0042] | < 100 nM |  |
| CCc1c(F)cc(Cl)cc1Cn1c(Nc2cc3cn(C)nc3cc2Cl)nc(=O)n(Cc2ncn(C)n2)c1=O [II-0639] | < 100 nM |  |
| CNC(=O)c1c[nH]c(=O)c(Cn2c(=O)nc(Nc3cc4cn(C)nc4cc3Cl)n(Cc3cc(F)c(F)c(F)c3)c2=O)c1 [Compound I-0477] | < 100 nM |  |
| Cc1cc(C)nc(NC23CC(Nc4nc(=O)n(Cc5ccc[nH]c5=O)c(=O)n4Cc4cc(F)c(F)c(F)c4)(C2)C3)n1 [II-0627] | < 100 nM |  |
| Cn1cnc(Cn2c(=O)nc(NC34CC(Nc5ncc(F)cn5)(C3)C4)n(Cc3cc(F)c(F)c(F)c3)c2=O)n1 [II-0473] | < 100 nM |  |
| Cn1cnc2cc(Cl)c(Nc3nc(=O)n(Cc4ccc[nH]c4=O)c(=O)n3Cc3cc(F)c(F)c(F)c3)cc2c1=O [Compound I-0097] | < 100 nM |  |
| CNc1cncc(-n2c(=O)nc(Nc3cc4c(cc3Cl)OCC4)n(Cc3cc(F)c(F)cc3F)c2=O)c1 [II-0613] | < 100 nM |  |
| CN(C)C(=O)c1ccc(Cn2c(=O)nc(Nc3cc4cn(C)nc4cc3Cl)n(Cc3cc(F)c(F)c(F)c3)c2=O)c(=O)[nH]1 [Compound I-0063] | < 100 nM |  |
| Cn1cnc2ccc(Nc3nc(=O)n(Cc4ccc[nH]c4=O)c(=O)n3Cc3cc(F)c(F)c(F)c3)cc21 [Compound I-0144] | < 100 nM |  |
| CN(C)C(=O)c1cnc2[nH]c(=O)c(Cn3c(=O)nc(Nc4ccc5c(c4)CCO5)n(Cc4cc(F)c(F)c(F)c4)c3=O)cc2c1 [II-0315] | < 100 nM |  |
| COc1ccc(Nc2nc(=O)n(Cc3cc(C(=O)NCc4cnn(C)c4)c[nH]c3=O)c(=O)n2Cc2cc(F)c(F)c(F)c2)cc1 [II-0324] | < 100 nM |  |
| Cn1cnc(Cn2c(=O)nc(Nc3cc4cn(CCS(C)(=O)=O)nc4cc3Cl)n(Cc3cc(Cl)c(F)cc3F)c2=O)n1 [II-0033] | < 100 nM |  |
| CN1CC[C@H](n2cc3cc(Nc4nc(=O)n(Cc5ncn(C)n5)c(=O)n4Cc4cc(F)c(F)cc4F)c(Cl)cc3n2)C1=O [II-0465] | < 100 nM |  |
| CNc1cncc(-n2c(=O)nc(Nc3ccc4c(c3)CCO4)n(Cc3cc(F)c(F)cc3F)c2=O)c1 [II-0612] | < 100 nM |  |
| Cn1cc2cc(Nc3nc(=O)n(Cc4cc5[nH]cnc5cn4)c(=O)n3Cc3cc(F)c(F)cc3F)c(Cl)cc2n1 [II-0256] | 160 nM |  |
| Cc1cncc(-n2c(=O)nc(Nc3ccc(N=S4(=O)CCCC4)cc3F)n(Cc3cc(Cl)ccc3C)c2=O)c1 [II-0616] | < 100 nM |  |
| Cc1cnn(Cc2cc(F)c(F)cc2Cn2c(Nc3cc4cn(C)nc4cc3Cl)nc(=O)n(Cc3ncn(C)n3)c2=O)c1 [II-0637] | < 100 nM |  |
| Cc1cncc(-n2c(=O)nc(Nc3cc4cn(C)nc4cc3Cl)n(C[C@@H]3CCCN3C(=O)CNC(=O)C(F)(F)F)c2=O)c1 [II-0086] | 3400 nM |  |

| Structure (SMILES) | IC50 (IC50) | IC50 (50% SARS-CoV-2 3CL protease inhibitory concentration, given as class symbols, read-out: IC50) |
| --- | --- | --- |
| Cn1cnc(Cn2c(=O)nc(Nc3cc4cn(C)nc4cc3Cl)n(Cc3c4ccccc4cc4ccccc34)c2=O)n1 [II-0225] | 2700 nM |  |
| CCNc1nc2cc(Cl)c(Nc3nc(=O)n(Cc4ncn(C)n4)c(=O)n3Cc3cc(Cl)c(F)cn3)cc2s1 [II-0340] | < 100 nM |  |
| COc1ccc(Nc2nc(=O)n(Cc3cc(=O)[nH][nH]c3=O)c(=O)n2Cc2cc(F)c(F)c(F)c2)cc1 [Compound I-0102] | 850 nM and 100 to 1000 nM |  |
| Cc1cncc(-n2c(=O)nc(Nc3ccc(N=S4(=O)CCCC4)cc3Cl)n(Cc3cc(Cl)ccc3C)c2=O)c1 [II-0624] | < 100 nM |  |
| Cn1cnc(Cn2c(=O)nc(Nc3cc4cn(CC(=O)N5CCCC5)nc4cc3Cl)n(Cc3cc(Cl)c(F)cc3F)c2=O)n1 [II-0138] | < 100 nM |  |
| O=c1[nH]cccc1Cn1c(=O)nc(Nc2ccc(-c3cc[nH]n3)cc2)n(Cc2cc(F)c(F)c(F)c2)c1=O [Compound I-0154] | 1300 nM and 1000 to 10000 nM |  |
| Cc1c[nH]nc1[C@@H]1C[C@H]1Nc1nc(=O)n(Cc2ccc[nH]c2=O)c(=O)n1Cc1cc(F)c(F)c(F)c1 (racemic) [II-0373] | 430 nM |  |
| CN(C)C(=O)Cn1cc2cc(Nc3nc(=O)n(Cc4ncn(C)n4)c(=O)n3Cc3cc(Cl)c(F)cc3F)c(Cl)cc2n1 [II-0276] | < 100 nM |  |
| CNC(=O)CCn1c(=O)nc(Nc2cc3cn(C)nc3cc2Cl)n(Cc2cc(F)c(F)cc2F)c1=O [II-0643] | 1000 nM |  |
| Cn1cnc(Cn2c(=O)nc(Nc3cc4cn(CC(=O)N5CCCCC5)nc4cc3Cl)n(Cc3cc(Cl)c(F)cc3F)c2=O)n1 [II-0134] | < 100 nM |  |
| CC(C)(C)OC(=O)NC12CC(Nc3nc(=O)n(Cc4ccc[nH]c4=O)c(=O)n3Cc3cc(F)c(F)c(F)c3)(C1)C2 [II-0209] | < 100 nM |  |
| Cn1cnc(Cn2c(=O)nc(Nc3cc4cn(CC5(N)CC5)nc4cc3Cl)n(Cc3cc(Cl)c(F)cc3F)c2=O)n1 [II-0557] |  | < 100 nM |
| Cc1cncc(-n2c(=O)nc(Nc3ccc4[nH]ncc4c3)n(Cc3ccc(F)c(C#N)c3)c2=O)c1 [II-0206] | < 100 nM |  |
| Cc1nc2cc(Cl)c(Nc3nc(=O)n(Cc4cc(Cl)c[nH]c4=O)c(=O)n3Cc3cc(F)c(F)c(F)c3)cc2n1C [Compound I-0078] | < 100 nM |  |
| COc1ccc(Nc2nc(=O)n(Cc3ccc[nH]c3=O)c(=O)n2Cc2nc3ccccc3s2)cc1 [Compound I-0223] | 4300 nM and 1000 to 10000 nM |  |
| Cn1cnc(Cn2c(=O)nc(Nc3cc4cn(C)nc4cc3Cl)n(Cc3cc(F)c(F)cc3C(F)(F)F)c2=O)n1 [II-0634] | < 100 nM |  |
| CNC(=O)Cn1c(=O)nc(Nc2cc3sc(C)nc3cc2C)n(Cc2cc(F)c(F)c(F)c2)c1=O [Compound I-0479] | 1000 to 10000 nM |  |
| CN(C)C(=O)CCn1cc2cc(Nc3nc(=O)n(Cc4ncn(C)n4)c(=O)n3Cc3cc(Cl)c(F)cc3F)c(Cl)cc2n1 [II-0338] | < 100 nM |  |
| Cc1cn2cc(Nc3nc(=O)n(Cc4ccc[nH]c4=O)c(=O)n3Cc3cc(F)c(F)c(F)c3)c(Cl)cc2n1 [Compound I-0441] | < 100 nM |  |
| Cc1cncc(-n2c(=O)nc(Nc3cc4sc(NS(C)(=O)=O)nc4cc3Cl)n(Cc3ccc(F)c(C#N)c3)c2=O)c1 [II-0427] | < 100 nM |  |
| Cc1cncc(-n2c(=O)nc(Nc3ccc(N=S(C)(C)=O)cc3Cl)n(Cc3cc(Cl)ccc3C)c2=O)c1 [II-0625] | < 100 nM |  |
| CC(=O)Nc1snc2cc(Cl)c(Nc3nc(=O)n(Cc4ncn(C)n4)c(=O)n3Cc3cc(Cl)c(F)cc3F)cc12 [II-0610] | < 100 nM |  |
